Assay results reported in PubChem BioAssay AID328 (DTP/NCI, 2004).
Where “and” joins values, the source holds several entries; their conditions need not be identical. Equal values may be shown once. Toxic doses and inconclusive results are not listed. Rule for the calls: active = survival T/C of 150% or more; inactive = T/C below 125% in these data.

System: BDF1 mice, P388 leukemia ip, median survival T/C
Experiment: NCI In Vivo Anticancer Drug Screen. Data for tumor model P388 Leukemia (intraperitoneal) in B6D2F1 (BDF1) mice
Conditions: endpoint: median survival time, higher = longer survival
In short: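 In tumour-bearing mice, survival after compound treatment is set against the vehicle group and given as a quotient.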

[1] = dose: 50.0 mg/kg/injection, schedule: Q01DX009 (ip), vehicle: saline with Tween-80
[2] = dose: 100.0 mg/kg/injection, schedule: Q01DX009 (ip), vehicle: saline with Tween-80
[3] = dose: 200.0 mg/kg/injection, schedule: Q01DX009 (ip), vehicle: saline with Tween-80

Measured: T/C

COc1cccc(/C=C(/SC)S(C)=O)c1OC (stereo not drawn)
inactive: dose: 100.0 mg/kg/injection, schedule: Q04DX003 (ip), vehicle: saline 106 % of control | dose: 200.0 mg/kg/injection, schedule: Q04DX003 (ip), vehicle: saline 115 % of control | dose: 400.0 mg/kg/injection, schedule: Q04DX003 (ip), vehicle: saline 120 % of control

CCCCCC#CC(=O)O
inactive: [1] 99 % of control | [2] 100 % of control | [3] 90 % of control

CCCCCCCCCCCCN1C(=O)[N+](C)(C)N=C1[O-]
inactive: dose: 25.0 mg/kg/injection, schedule: Q01DX009 (ip), vehicle: saline with Tween-80 90 % of control | [1] 90 % of control | [2] 92 % of control

O=C1C=C(Nc2ccccc2)CCC1
inactive: dose: 50.0 mg/kg/injection, schedule: Q01DX009 (ip), vehicle: saline 99 % of control | dose: 100.0 mg/kg/injection, schedule: Q01DX009 (ip), vehicle: saline 100 % of control | dose: 200.0 mg/kg/injection, schedule: Q01DX009 (ip), vehicle: saline 103 % of control

CC(C)(C)c1ccc(OCc2cnc[nH]2)cc1
inactive: dose: 100.0 mg/kg/injection, schedule: Q01DX001 (ip), vehicle: saline 113 % of control

COc1ccc(Br)c(C=O)c1OS(=O)(=O)c1ccc(C)cc1
inactive: dose: 25.0 mg/kg/injection, schedule: Q01DX009 (ip), vehicle: other 100 % of control | dose: 50.0 mg/kg/injection, schedule: Q01DX009 (ip), vehicle: other 110 % of control | dose: 100.0 mg/kg/injection, schedule: Q01DX009 (ip), vehicle: other 94 % of control | dose: 200.0 mg/kg/injection, schedule: Q01DX009 (ip), vehicle: other 99 % of control | dose: 400.0 mg/kg/injection, schedule: Q01DX009 (ip), vehicle: other 95 % of control

CN(C)c1ccc(Cc2ccc(N(C)C)nc2)cn1
inactive: dose: 100.0 mg/kg/injection, schedule: Q01DX009 (ip), vehicle: Klucel (hydroxypropylcellulose) (HPC) 100 % of control | dose: 100.0 mg/kg/injection, schedule: Q04DX003 (ip), vehicle: Klucel (hydroxypropylcellulose) (HPC) 95 % of control | dose: 200.0 mg/kg/injection, schedule: Q01DX009 (ip), vehicle: Klucel (hydroxypropylcellulose) (HPC) 110 % of control | dose: 200.0 mg/kg/injection, schedule: Q04DX003 (ip), vehicle: Klucel (hydroxypropylcellulose) (HPC) 100 % of control | dose: 400.0 mg/kg/injection, schedule: Q01DX009 (ip), vehicle: Klucel (hydroxypropylcellulose) (HPC) 100 % of control | dose: 400.0 mg/kg/injection, schedule: Q04DX003 (ip), vehicle: Klucel (hydroxypropylcellulose) (HPC) 95 % of control

CN1CCC/C(=C(/N)c2ccccc2)S1(=O)=O
inactive: [1] 104 % of control | [2] 100 % of control | [3] 104 % of control

CCOC(=O)C1(C(C)C)OC2(O)CCCCCN2C1=O (stereo not drawn)
inactive: [1] 95 % of control | [2] 109 % of control | [3] 104 % of control

CC(=O)N1C(=O)NC(=O)C1(C)c1ccc(Cl)s1 (stereo not drawn)
inactive: [1] 92 % of control | [2] 97 % of control | dose: 100.0 mg/kg/injection, schedule: Q04DX003 (ip), vehicle: saline with Tween-80 100 % of control | [3] 113 % of control | dose: 200.0 mg/kg/injection, schedule: Q04DX003 (ip), vehicle: saline with Tween-80 100 % of control | dose: 400.0 mg/kg/injection, schedule: Q01DX009 (ip), vehicle: saline with Tween-80 106 % of control

O=C1NC(C2CCC3CN32)C(=O)NC1C1CCC2CN21 (stereo not drawn)
active: dose: 0.8 mg/kg/injection, schedule: Q01DX009 (ip), vehicle: saline 164 % of control and 173 % of control
inactive: dose: 0.05 mg/kg/injection, schedule: Q01DX009 (ip), vehicle: saline 91 % of control and 118 % of control | dose: 0.1 mg/kg/injection, schedule: Q01DX009 (ip), vehicle: saline 96 % of control | dose: 0.2 mg/kg/injection, schedule: Q01DX009 (ip), vehicle: saline 107 % of control

O=C(Nc1cccc(C(F)(F)F)c1)Nc1ccc(Oc2ccc(Cl)cc2)cc1S(=O)(=O)O
inactive: dose: 50.0 mg/kg/injection, schedule: Q04DX003 (ip), vehicle: saline sonified 104 % of control | dose: 100.0 mg/kg/injection, schedule: Q04DX003 (ip), vehicle: saline sonified 100 % of control

O=C(c1ccccc1)C1CC1c1ccccc1 (stereo not drawn)
inactive: dose: 100.0 mg/kg/injection, schedule: Q01DX001 (ip), vehicle: Klucel (hydroxypropylcellulose) (HPC) 120 % of control | dose: 200.0 mg/kg/injection, schedule: Q01DX001 (ip), vehicle: Klucel (hydroxypropylcellulose) (HPC) 104 % of control | dose: 400.0 mg/kg/injection, schedule: Q01DX001 (ip), vehicle: Klucel (hydroxypropylcellulose) (HPC) 100 % of control

CC1CCC2(OC1)OC1CC3C4CCC5CC(O)C(O)CC5(C)C4CCC3(C)C1C2C (stereo not drawn)
inactive: dose: 100.0 mg/kg/injection, schedule: Q04DX003 (ip), vehicle: other 91 % of control | dose: 200.0 mg/kg/injection, schedule: Q04DX003 (ip), vehicle: other 87 % of control | dose: 400.0 mg/kg/injection, schedule: Q04DX003 (ip), vehicle: other 87 % of control
